Measurements reported in patent US20250304644A1, “PEPTIDES TRIPLE AGONISTS OF GIP, GLP-1 AND GLP-2” (BAINAN BIOTECH APS, priority 2021, published 2025).
Several values for one entry are separate records, joined by “and”; a condition that tells them apart may be missing. Equal entries are not always repeated. *1 amine or outer side, *2 acyl side, *3 side chain or, on linkers, in order; H or OH if unused. Where a SMILES comes first, the peptide text is derived from it. Where no end group is shown, it is not given here. Side-chain parts run from the residue outwards. [ ]: non-standard residue; d: D form. The star is where a group is joined. C18 diacid = O=C(O)CCCCCCCCCCCCCCCCC(=O)*; γGlu = O=C(O)[C@H](CCC(=O)[*:2])N[*:1]; AEEA = NCCOCCOCC(=O)O; Aib = CC(C)(N)C(=O)O

Experiments:
Type in all cases: cell-based
[1] = target: human glucagon receptor (GCGR) (Homo sapiens, UniProt P47871); assay: Gs activation measured as cAMP accumulation on human glucagon receptor (FIG. 1 radar plot); conditions: read-out: −p Log EC50 on human glucagon receptor (GCGR) (converted)
Chain of human glucagon receptor (GCGR) (P47871 26-477): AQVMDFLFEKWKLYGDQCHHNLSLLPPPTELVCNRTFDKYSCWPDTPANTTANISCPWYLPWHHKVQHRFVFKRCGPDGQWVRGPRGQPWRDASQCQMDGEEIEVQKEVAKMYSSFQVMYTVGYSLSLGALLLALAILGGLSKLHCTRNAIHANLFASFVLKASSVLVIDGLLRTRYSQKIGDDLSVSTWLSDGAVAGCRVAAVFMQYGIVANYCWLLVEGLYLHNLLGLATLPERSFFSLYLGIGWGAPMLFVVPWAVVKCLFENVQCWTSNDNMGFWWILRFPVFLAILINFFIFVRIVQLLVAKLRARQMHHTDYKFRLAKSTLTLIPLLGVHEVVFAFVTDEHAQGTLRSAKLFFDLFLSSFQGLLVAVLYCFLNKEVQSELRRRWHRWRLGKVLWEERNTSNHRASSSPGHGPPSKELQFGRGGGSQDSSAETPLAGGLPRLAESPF
Source text: Here, the compounds 20, 21, 22, 28, 30, 31,32, 33, 34, 35 are shown in terms of their potencies in Gs activation, measured as CAMP accumulation, depicted in a radar plot. The numbers refer to −p Log EC50 values. […] The outer rings correspond to higher potencies, the inner rings correspond to lower potencies.

human GLP-2R = target: T1, human GLP-2R (Homo sapiens, UniProt O95838); assay: cAMP assay (HitHunter) in transiently transfected COS-7 cells expressing human GLP-2R; conditions: for Emax: COS-7, normalized to highest concentration of the endogenous ligand, read-out: Efficacy GLP-2R (Emax); for EC50: cAMP, COS-7 cells, human GLP-2R, read-out: EC50 (nM) GLP-2R
T1 construct: host or cells: COS-7
T1 sequence (O95838 1-553): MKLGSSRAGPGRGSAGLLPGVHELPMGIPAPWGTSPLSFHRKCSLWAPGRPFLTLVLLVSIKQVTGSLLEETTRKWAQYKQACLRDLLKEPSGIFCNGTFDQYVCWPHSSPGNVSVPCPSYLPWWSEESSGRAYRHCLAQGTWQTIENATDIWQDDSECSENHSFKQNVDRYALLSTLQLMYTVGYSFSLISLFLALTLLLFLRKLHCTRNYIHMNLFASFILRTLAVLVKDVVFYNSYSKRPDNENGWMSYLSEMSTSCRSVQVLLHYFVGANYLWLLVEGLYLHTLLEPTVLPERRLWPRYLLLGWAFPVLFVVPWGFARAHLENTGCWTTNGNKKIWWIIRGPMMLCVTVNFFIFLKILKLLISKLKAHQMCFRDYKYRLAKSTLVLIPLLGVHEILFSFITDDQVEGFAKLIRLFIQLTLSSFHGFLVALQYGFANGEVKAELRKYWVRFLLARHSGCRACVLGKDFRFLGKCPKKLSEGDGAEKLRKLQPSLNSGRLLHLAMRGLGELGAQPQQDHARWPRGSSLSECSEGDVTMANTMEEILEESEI

human SNAP-tagged GIPR = target: T2, human SNAP-tagged GIPR (Homo sapiens, UniProt P48546); assay: Receptor internalization assay, HEK293A cells expressing human SNAP-tagged GIPR; conditions: for Absolute hGIPR internalization (AUC): AUC of sigmoid curves up to 1 μM, 60 minutes at 37° C.; for Relative hGIPR internalization (%): relative to hGIP 1-42 = 100
T2 construct: host or cells: HEK293A
T2 sequence (P48546 22-466): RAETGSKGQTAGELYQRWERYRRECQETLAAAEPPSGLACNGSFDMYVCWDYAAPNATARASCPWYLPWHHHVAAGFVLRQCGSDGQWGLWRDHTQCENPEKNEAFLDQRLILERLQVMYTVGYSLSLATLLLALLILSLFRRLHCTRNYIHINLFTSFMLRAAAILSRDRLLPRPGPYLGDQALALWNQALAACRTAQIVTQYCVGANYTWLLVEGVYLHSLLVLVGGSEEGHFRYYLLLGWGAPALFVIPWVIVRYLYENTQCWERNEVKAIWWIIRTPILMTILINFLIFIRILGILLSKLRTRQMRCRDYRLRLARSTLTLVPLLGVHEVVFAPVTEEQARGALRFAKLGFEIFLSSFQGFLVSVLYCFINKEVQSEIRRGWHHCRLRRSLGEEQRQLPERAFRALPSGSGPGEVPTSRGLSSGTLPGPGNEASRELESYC

human GIPR = target: T3, human GIPR (Homo sapiens, UniProt P48546); assay: cAMP assay (HitHunter) in transiently transfected COS-7 cells expressing human GIPR; conditions: for Emax: COS-7, normalized to highest concentration of the endogenous ligand, read-out: Efficacy GIPR (Emax)
T3 construct: host or cells: COS-7
T3 sequence (P48546 22-466): T2 sequence (P48546 22-466)

human SNP-tagged GLP-2R = target: T4, human SNP-tagged GLP-2R (Homo sapiens, UniProt O95838); assay: Receptor internalization assay, HEK293A cells expressing human SNAP-tagged GLP-2R; conditions: for Absolute hGLP-2R internalization (AUC): AUC of sigmoid curves up to 1 μM, 60 minutes at 37° C.; for Relative hGLP-2R internalization (%): relative to native ligand = 100
T4 construct: expressed in transfected cells; host or cells: HEK293A
T4 sequence (O95838 1-553): T1 sequence (O95838 1-553)

human SNAP-tagged GLP-1R = target: T5, human SNAP-tagged GLP-1R (Homo sapiens, UniProt P43220); assay: Receptor internalization assay, HEK293A cells expressing human SNAP-tagged GLP-1R; conditions: for Absolute hGLP-1R internalization (AUC): AUC of sigmoid curves up to 1 μM, 60 minutes at 37° C.; for Relative hGLP-1R internalization (%): relative to hGLP-1 = 100
T5 construct: expressed in transfected cells; host or cells: HEK293A
T5 sequence (P43220 24-463): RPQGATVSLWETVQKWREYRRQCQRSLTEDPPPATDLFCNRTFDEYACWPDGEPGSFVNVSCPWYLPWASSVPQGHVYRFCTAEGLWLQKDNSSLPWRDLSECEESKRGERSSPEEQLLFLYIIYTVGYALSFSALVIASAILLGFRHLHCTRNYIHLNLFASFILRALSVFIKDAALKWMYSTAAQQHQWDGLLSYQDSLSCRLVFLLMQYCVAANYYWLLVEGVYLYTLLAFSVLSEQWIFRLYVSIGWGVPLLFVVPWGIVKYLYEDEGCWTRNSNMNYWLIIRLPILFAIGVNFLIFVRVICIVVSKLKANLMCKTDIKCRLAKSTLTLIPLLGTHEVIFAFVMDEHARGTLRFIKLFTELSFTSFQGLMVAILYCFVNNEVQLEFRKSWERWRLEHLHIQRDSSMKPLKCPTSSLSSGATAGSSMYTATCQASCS

human GLP-1R = target: T6, human GLP-1R (Homo sapiens, UniProt P43220); assay: cAMP assay (HitHunter) in transiently transfected COS-7 cells expressing human GLP-1R; conditions: for Emax: COS-7, normalized to highest concentration of the endogenous ligand, read-out: Efficacy GLP-1R (Emax); for EC50: cAMP, COS-7 cells, human GLP-1R, read-out: EC50 (nM) GLP-1R
T6 construct: host or cells: COS-7
T6 sequence (P43220 24-463): as above

EC50 [1]	Emax (human GLP-2R)	EC50 (human GLP-2R)	Absolute hGIPR internalization (AUC) (human SNAP-tagged GIPR)	Relative hGIPR internalization (%) (human SNAP-tagged GIPR)	Emax (human GIPR)	Absolute hGLP-2R internalization (AUC) (human SNP-tagged GLP-2R)	Relative hGLP-2R internalization (%) (human SNP-tagged GLP-2R)	Absolute hGLP-1R internalization (AUC) (human SNAP-tagged GLP-1R)	Relative hGLP-1R internalization (%) (human SNAP-tagged GLP-1R)	Emax (human GLP-1R)	EC50 (human GLP-1R)	EC50 (human GIPR; cAMP, COS-7 cells, human GIPR)	GLP-2R internalization (in words) (human SNP-tagged GLP-2R; compared to native GLP-2)	GLP-1R internalization (in words) (human SNAP-tagged GLP-1R; compared to native GLP-1)	Molecule	GIPR internalization (in words) (human SNAP-tagged GIPR; compared to native GIP)
> 100 nM	89%	2.2 nM	21.7	58% and 59%	119%	12.0	24.8%	0.96	1.14%	102%	3.98 nM				CC[C@H](C)[C@H](NC(=O)[C@H](Cc1ccccc1)NC(=O)[C@H](CC(=O)O)NC(=O)[C@H](CCCNC(=N)N)NC(=O)[C@H](C)NC(=O)[C@H](C)NC(=O)[C@H](CC(C)C)NC(=O)[C@H](C)NC(=O)[C@H](CC(=O)O)NC(=O)[C@H](CC(C)C)NC(=O)[C@@H](NC(=O)[C@@H](NC(=O)[C@H](CO)NC(=O)[C@H](Cc1ccc(O)cc1)NC(=O)[C@H](CC(=O)O)NC(=O)[C@H](CO)NC(=O)[C@@H](NC(=O)[C@H](Cc1ccccc1)NC(=O)[C@@H](NC(=O)CNC(=O)[C@H](CC(=O)O)NC(=O)C(C)(C)NC(=O)[C@@H](N)Cc1c[nH]cn1)[C@@H](C)O)[C@@H](C)CC)[C@@H](C)O)[C@@H](C)CC)C(=O)N[C@@H](CC(N)=O)C(=O)N[C@@H](Cc1c[nH]c2ccccc12)C(=O)N[C@@H](CC(C)C)C(=O)N[C@H](C(=O)N[C@@H](CCC(N)=O)C(=O)N[C@H](C(=O)N[C@@H](CCCCN)C(=O)N[C@H](C(=O)N[C@H](C(=O)N[C@@H](CCCCNC(=O)COCCOCCNC(=O)COCCOCCNC(=O)CC[C@H](NC(=O)CCCCCCCCCCCCCCCCC(=O)O)C(=O)O)C(=O)O)[C@@H](C)O)[C@@H](C)CC)[C@@H](C)O)[C@@H](C)CC [Compound 28] (H-H[Aib]DGTFISDYSTILDALAARDFINWLIQTKITK([AEEA-AEEA-γGlu-C18 diacid])-OH; N-terminus assumed)	
> 100 nM	104%	0.6 nM	10.2	28%	104%	36.3	74.6%	94.7	112.59%	122%	0.05 nM	0.398 nM	comparable to native GLP-1 and GLP-2	comparable to native GLP-1 and GLP-2	HADGTFTSDYSTILDK([AEEA-AEEA-γGlu-C18 diacid])LAARDFINWLIQTKGKKNDWKHNITQ-OH [Compound 21]	reduced internalization compared to native GIP
